Experiments:
[1] = tested on: CaCo-2 (colorectal adenocarcinoma) cells; experiment: SRB cell growth inhibition assay, CaCo-2; assay type: cell-based, human; settings: Homo sapiens, Caco-2, 72 h, mean ± standard deviation
Experimental: (§1) The antitumor potential of the Sonogashira coupling products 2, tricyclic lactones 3 and 5, and tetracyclic lactones 7 was evaluated using the sulforhodamine B (SRB) assay against five human tumor cell lines: colorectal adenocarcinoma (CaCo-2), breast adenocarcinoma (MCF-7), gastric adenocarcinoma (AGS), cervical carcinoma (HeLa), and non-small cell lung cancer (NCI-H460). A primary pig liver cell culture (PLP2) was used to assess the toxicity of compounds.
(§2) The human tumor cell lines used were CaCo-2 (colorectal adenocarcinoma), MCF-7 (breast adenocarcinoma), AGS (gastric adenocarcinoma), HeLa (cervical carcinoma), NCI-H460 (lung carcinoma). Non-tumor cell lines were also tested: PLP2 (primary pig liver culture). All the cell lines were maintained in RPMI-1640 medium supplemented with 10% fetal bovine serum, glutamine (2 mM), penicillin (100 U/mL), and streptomycin ([…]), with the exception of PLP2, which was maintained in DMEM medium supplemented with fetal bovine serum (10%), glutamine and antibiotics. The culture flasks were incubated at 37 °C and with 5% CO2, under a humid atmosphere. The cells were used only when they had 70 to 80% confluence. A known mass of each compound was dissolved in DMSO/H2O (1:1, 1 mL), in order to obtain the stock solutions with a concentration of 1 mM. […] Each compound concentration (10 μL) was incubated with the cell suspension (190 μL) of the cell lines tested in 96-well microplates for 72 h. The microplates were incubated at 37 °C and with 5% CO2 in a humid atmosphere after checking the adherence of the cells. All cell lines were tested at a concentration of 10,000 cells/well. After the incubation period, the cells were treated: TCA (10% w/v; 100 μL) was previously cooled, and plates were incubated for 1 h at 4 °C, washed with water, and, after drying, a SRB solution (0.057%, m/v; 100 μL) was added and left to stand at room temperature for 30 min. To remove non-adhered SRB, plates were washed three times with a solution of acetic acid (1% v/v) and placed to dry. Finally, an adhered SRB was solubilized with Tris (10 mM, 200 μL) and the absorbance at a wavelength of 540 nm was read in the Biotek ELX800 microplate reader. The results obtained by the SRB assay were expressed regarding the concentration compounds that can inhibit cell growth by 50%—GI50. Doxorubicin was used as a positive control.

[2] = tested on: MCF-7 (breast adenocarcinoma) cells; experiment: SRB cell growth inhibition assay, MCF-7; assay type: cell-based, human; settings: Homo sapiens, MCF7, 72 h, mean ± standard deviation
Experimental: as §1, §2

[3] = tested on: AGS (gastric adenocarcinoma) cells; experiment: SRB cell growth inhibition assay, AGS; assay type: cell-based; settings: Homo sapiens, 72 h, mean ± standard deviation
Experimental: as §1, §2

[4] = tested on: HeLa (cervical carcinoma) cells; experiment: SRB cell growth inhibition assay, HeLa; assay type: cell-based; settings: Homo sapiens, 72 h, mean ± standard deviation
Experimental: as §1, §2

[5] = tested on: NCI-H460 (non-small cell lung cancer) cells; experiment: SRB cell growth inhibition assay, NCI-H460; assay type: cell-based; settings: Homo sapiens, 72 h, mean ± standard deviation
Experimental: as §1, §2

[6] = SRB assay, toxicity in non-tumor PLP2 cells; assay type: cell-based, pig; settings: PLP2 primary pig liver cells (non-tumor); non-tumor primary pig liver cells, SRB assay, 72 h, mean ± standard deviation
Experimental: as §1, §2

[7] = MTT cytotoxicity in THP-1-derived macrophages; assay type: cell-based, human; settings: human, THP-1-derived macrophages (PMA-differentiated); MTT, 72 h, tested 100 to 12.5 μM; read-out: CC50 Interval in THP-1-Derived Macrophages
Experimental: Human leukemia cell line, THP-1 (ATCC® TIB-202™, Manassas, VA, USA) was cultured in RPMI-1640 medium supplemented with 10% heat-inactivated Fetal Bovine Serum (FBS), 2 mM L-glutamine, 100 UI/mL penicillin/streptomycin, 20 mM HEPES. The cell line was maintained in a humidified incubator at 37 °C and 5% CO2 by subculture every three days in 20 mL of media at a concentration of 1 × 10^5/mL in a T75 flask. All cell culture reagents were purchased from Lonza-Bioscience (Morrisville, NC, USA).
The cytotoxicity effect of compounds on THP-1-derived macrophages was assessed by the colorimetric MTT assay (3-(4,5-dimethylthiazol-2-yl)-2,5-diphenyl tetrazolium bromide). Briefly, THP-1 cells were suspended in RPMI complete medium at a density of 1 × 10^6 cells/mL and 100 μL/well were seeded in a 96-well plate and were differentiated into macrophages by addition of 40 ng/mL of phorbol-myristate 13-acetate (PMA, Sigma, Saint Louis, MI, USA) for 24 h followed by replacement with fresh medium for more 24 h. Subsequently, cells were incubated with 100 μL of compounds ranging from 100 to 12.5 μM after dilution in the RPMI complete medium. Each condition was carried out in quadruplicate. After 72 h of incubation at 37 °C 5% CO2, the medium was removed and 200 μL of 0.5 mg/mL MTT solution diluted in RPMI was added. Plates were incubated for an additional 4 h. Then 160 μL of media was removed and the same volume of 2-propanol was added. Absorbance was read at 570 nm using a Synergy 2 Multi-Mode Reader (Biotek, Winooski, VT, USA). Cytotoxicity was evaluated by the determination of the CC50 value (drug concentration that reduced the percentage of viable cells in 50%) and calculated by non-linear regression analysis using GraphPad Prism version 8.1.1 for Windows (GraphPad Software, San Diego, CA, USA). The results represent the average of at least three independent experiments. For each compound, the Selectivity Index (SI) was calculated as the ratio between cytotoxicity in THP-1 (CC50, 72 h) and activity against parasites (IC50, 72 h).

[8] = tested on: T. brucei Lister 427 bloodstream forms; experiment: Resazurin-based anti-T. brucei assay; assay type: cell-based, Trypanosoma brucei; settings: Trypanosoma brucei, 72 h, dose-response
Experimental: The antiparasitic activity of compounds 2c–g, 3a, 5a and 7 was evaluated at a single concentration of 20 μM, against Trypanosoma brucei (T. brucei) and Leishmania infantum (L. infantum) promastigotes. The results are shown in Table 9 together with the cytotoxicity data (CC50) in THP-1–derived macrophages cells.
T. brucei Lister 427 bloodstream forms were grown in a humidified incubator at 37 °C, 5% CO2 in complete HMI-9 medium 1 supplemented with 10% heat-inactivated Fetal Bovine Serum (FBS) and 100 UI/mL penicillin/streptomycin. Parasites maintenance was performed in T25 ventilated flasks by subpassage at a concentration of 1 × 10^4/mL every 2 days on T25 ventilated flasks.
The efficacy of compounds against T. brucei bloodstream forms was evaluated using a modified resazurin-based assay previously described in the literature. Parasites were added to 100 µL of serial dilutions of compounds in supplemented complete medium at a cell density of 5 × 10^3/mL for. As a quality control, a dose–response curve for the antitrypanosomal pentamidine was included in all the assays. The final volume of the assay is 200 µL/well. Each condition was carried out in duplicate. Following 72 h incubation at the specific conditions for T. brucei, 20 µL of a 0.5 mM resazurin solution was added and plates were incubated for a further 4 h under the same conditions. Fluorescence was measured at 544 nm and 590 nm excitation and emission wavelength, respectively, using a Synergy 2 Multi-Mode Reader (Biotek, Winooski, VT, USA). Results were shown as % of parasite growth inhibition compared to control (untreated parasites) and represent the average of at least three independent experiments. The effect was evaluated by the determination of the IC50 value (concentration required to inhibit growth in 50%) and calculated by non-linear regression curves using GraphPad Prism version 8.1.1 for Windows (GraphPad Software, San Diego CA, USA).

Row | SMILES | GI50 [1] | GI50 [2] | GI50 [3] | GI50 [4] | GI50 [5] | GI50 at 72 h [6] | CC50 at 72 h [7] | IC50 [8]
1 | Cc1c(-c2ccccc2)oc(=O)c2sc3nc4ccccc4cc3c12 [Compound 7f, 4-Methyl-3-phenyl-1H-pyrano[4’,3’:4,5]thieno[2,3-b]quinolin-1-one] | 87 ± 3.51 µM | 76.4 ± 2.58 µM | 83.4 ± 6.27 µM | 71.5 ± 2.36 µM | 92.1 ± 3.89 µM | > 125 µM | 12.5 to 50 µM | 
2 | COc1cccc2c1C(=O)c1c(O)c3c(c(O)c1C2=O)C[C@@](O)(C(=O)CO)C[C@@H]3O[C@H]1C[C@H](N)[C@H](O)[C@H](C)O1 [doxorubicin, Doxorubicin, reference compound] | 0.04 µM | 0.05 µM | 0.03 µM | 0.05 µM | 0.07 µM | 0.1 µM |  | 
3 | CCCCCCCCCCCCCCCCOP(=O)([O-])OCC[N+](C)(C)C [Milefosine, miltefosine, reference compound] |  |  |  |  |  |  |  | 2.9 µM
4 | O=c1oc(-c2ccccc2)c(Br)c2c1sc1nccnc12 [Compound 5b, 9-Bromo-8-phenyl-6H-pyrano[4′,3′:4,5]thieno[2,3-b]pyrazin-6-one] | 18.3 ± 0.92 µM | 45.1 ± 1.74 µM | 32.8 ± 1.56 µM | 29.1 ± 2.81 µM | 48.3 ± 1.08 µM | 89.8 ± 1.79 µM |  | 
5 | Nc1ccc(-c2cc3c(sc4nccnc43)c(=O)o2)cc1 [Compound 3b, 8-(4-aminophenyl)-6H-pyrano[4′,3′:4,5]thieno[2,3-b]pyrazin-6-one] | 67.5 ± 4.19 µM | 75.7 ± 6.48 µM | 74.3 ± 5.96 µM | 58.1 ± 4.29 µM | 82.7 ± 7.41 µM | > 125 µM |  | 
6 | COC(=O)c1sc2nccnc2c1C#Cc1ccc(N)cc1 [Compound 2b, Methyl 7-[(4-aminophenyl)ethynyl]thieno[2,3-b]pyrazine-6-carboxylate] | 59.2 ± 1.76 µM | 49.7 ± 2.41 µM | 51.4 ± 2.87 µM | 47.9 ± 3.58 µM | 48.6 ± 4.31 µM | > 125 µM |  | 
7 | COc1ccc(-c2cc3c(sc4nccnc43)c(=O)o2)cc1 [Compound 3d, 8-(4-Methoxyphenyl)-6H-pyrano[4′,3′:4,5]thieno[2,3-b]pyrazin-6-one] | 90.5 ± 6.47 µM | 58.6 ± 1.86 µM | 56.2 ± 3.02 µM | 50.3 ± 4.79 µM | 45.3 ± 3.27 µM | > 125 µM |  | 
8 | Cc1ccc(-c2cc3c(sc4nccnc43)c(=O)o2)cc1 [Compound 3e, 8-(p-Tolyl)-6H-pyrano[4′,3′:4,5]thieno[2,3-b]pyrazin-6-one] | 28.8 ± 1.85 µM | 47.6 ± 4.5 µM | 43.8 ± 1.76 µM | 38.2 ± 3.29 µM | 29.3 ± 1.47 µM | 90.5 ± 6.47 µM |  | 
9 | O=c1oc(-c2ccc(Br)cc2)c(-c2ccc(Br)cc2)c2c1sc1nc3ccccc3cc12 [Compound 7c, 3,4-Bis(4-bromophenyl)-1H-pyrano[4′,3′:4,5]thieno[2,3-b]quinolin-1-one] | 87.8 ± 8.01 µM | 90.3 ± 4.16 µM | 104 ± 9.12 µM | 77.1 ± 1.12 µM | 108 ± 5.44 µM | > 125 µM | < 12.5 µM | 
10 | O=c1oc(-c2ccc(F)cc2)cc2c1sc1nccnc12 [Compound 3c, 8-(4-fluorophenyl)-6H-pyrano[4′,3′:4,5]thieno[2,3-b]pyrazin-6-one] | 44.1 ± 0.93 µM | 56.1 ± 3.56 µM | 51.5 ± 3.29 µM | 48.4 ± 3.19 µM | 72.4 ± 6.24 µM | > 125 µM |  | 
11 | O=c1oc(-c2ccsc2)cc2c1sc1nccnc12 [Compound 3g, 8-(thiophen-3-yl)-6H-pyrano[4′,3′:4,5]thieno[2,3-b]pyrazin-6-one] | 52.5 ± 1.31 µM | 48.6 ± 2.15 µM | 45.3 ± 0.89 µM | 39 ± 1.78 µM | 44 ± 3.28 µM | > 125 µM |  | 
12 | COC(=O)c1sc2nccnc2c1C#Cc1ccccc1 [Compound 2a, Methyl 7-(phenylethynyl)thieno[2,3-b]pyrazine-6-carboxylate] | 70 ± 3.78 µM | 94.8 ± 6.43 µM | 86.8 ± 4.99 µM | 68.7 ± 3.05 µM | 91.5 ± 9.12 µM | > 125 µM |  | 
13 | O=c1oc(-c2ccccc2)cc2c1sc1nccnc12 [Compound 3a, 8-phenyl-6H-pyrano[4′,3′:4,5]thieno[2,3-b]pyrazin-6-one] | 79.9 ± 3.56 µM | 77.5 ± 1.23 µM | 56.4 ± 3.76 µM | 49.7 ± 2.69 µM | 36.5 ± 0.69 µM | > 125 µM | 50 to 100 µM | 
